Patent EP0037495A1, “Pyrimidyl quinazolines, process for their preparation and pharmaceutical compositions containing them” (CASSELLA Aktiengesellschaft, priority 1980, dated 1981)

Tested on: normotonen narkotisierten Ratte
Assay: Blood pressure measurement in the normotensive anaesthetised rat
Format: in vivo
Details: mean; for WD min x̄ (Wirkungsdauer): time from onset of change until return to baseline
Procedure: 1. Blutdruckmessung an der normotonen narkotisierten Ratte
Männliche IVANOVAS-Ratten (300 - 340 g) des Stammes SIV 50 wurden durch Applikation von 66 mg/kg a-Chloralose (1,1 % Lösung, 0,6 ml/100 g) und 20 mg:kg Aprobarbital in die Schwanzvene narkotisiert. Die Trachea wurde kannuliert um die Spontanatmung zu erleichtern. Die Messung des Blutdruckes erfolgte blutig über einen in die Rechte A. carotis eingebundenen PE-Schlauch auf konventionelle Weise. Mittels eines Dreiwegehahnes konnte dieser PE-Schlauch zur i.a.-Applikation der Prüfsubstanzen benutzt werden, wobei jeweils ein Volumen von 0,1 ml injiziert wurde. Durch Nachspülen mit 0,9 % NaCl gelangten die Substanzen über die Vertebralarterie auch in Richtung Zentralnervensystem bevor die Verteilung im allgemeinen Kreislauf erfolgte.
Zahlenmäßig ausgewertet wurde die maximale systolische und diastolische Blutdrucksenkung sowie die maximale Änderung der Herzfrequenz. Als Wirkdauer galt die Zeit vom Eintritt der Veränderung bis zum Erreichen des Ausgangswertes.

Structure (SMILES) | WD min x̄ (Wirkungsdauer) (dose 0.01 mg/kg i.a.) | HF Δ s/min x̄ (maximal change of heart rate, dose 0.1 mg/kg i.a.) | WD min x̄ (Wirkungsdauer) (dose 0.1 mg/kg i.a.)
COc1cc2nc(N3CCN(c4c([N+](=O)[O-])c(=O)n(C)c(=O)n4C)CC3)nc(N)c2cc1OC [*] | 36 min | – | –
COc1cc2nc(N3CCN(C(=O)c4ccco4)CC3)nc(N)c2cc1OC [Prazosin] | – | 0 s/min | 60 min
